Experimental data from ChEMBL document CHEMBL1137017, “In vitro antiviral activity and cross-resistance profile of PL-100, a novel protease inhibitor of human immunodeficiency virus type 1” (Antimicrob Agents Chemother, 2007).

Experiments:
[1] = test system: Human immunodeficiency virus 1; assay: Resistance index, ratio of EC50 for SQV-resistant HIV1 SaqR carrying G48V/L90MV mutation to EC50 for wild type HIV1 NL4-3 in HEK293 cells after 48 hrs by replication-deffective luciferase reporter gene-based phenotypic assay; format: functional
[2] = test system: Human immunodeficiency virus 1; assay: Resistance index, ratio of EC50 for SQV-resistant HIV1 4596 carrying L10R/M46I/L63P/[…]/L90M mutation to EC50 for wild type HIV1 NL4-3 in HEK293 cells after 48 hrs by replication-deffective luciferase reporter gene-based phenotypic assay; format: functional

COC(=O)N[C@H](C(=O)NCCCC[C@@H](CO)N(CC(C)C)S(=O)(=O)c1ccc(N)cc1)C(c1ccccc1)c1ccccc1 [PPL-100]
fold change (FC) [1]: 2.4
Activity [2]: 1.2
